From patent US20090143279A1 (priority 2007, published 2009)
Counter-ions that a name gives are not always drawn. Like-named read-outs stand apart in the source and are kept apart here.

How the values were obtained:
mtOXPHOS transcripts = assay type: cell-based, mouse
cytochrome c = assay type: cell-based, mouse
OXPHOS gene expression = assay type: cell-based, mouse; conditions: for OXPHOS expression: primary screen, in words; for dose at which OXPHOS expression increased: retest at 20 nM to 20 μM, FIG. 6a
nuOXPHOS transcripts = assay type: cell-based, mouse
reactive oxygen species = assay type: cell-based, mouse; conditions: for ROS levels: primary screen, in words; for dose at which ROS levels decreased: retest at 20 nM to 20 μM, FIG. 6a
[1] = system: cellular dehydrogenase activity
[2] = system: mitochondrial membrane potential; assay type: cell-based, mouse
[3] = composite Z-score vs DMSO, Conc 20 μM
[4] = normalized composite Z-score vs mock-treated (DMSO) wells, Conc 20 μM
[5] = Table 7, C2C12 myotubes, 48 h, composite Z-score
[6] = composite Z-score vs mock-treated (DMSO) wells, Conc 20 μM
[7] = composite Z-score vs DMSO wells, Conc 20 μM
[8] = Table 3, differentiated C2C12 myotubes, 48 h treatment, composite Z-score vs DMSO
[9] = Table 5, C2C12 myotubes, 48 h, composite Z-score

COc1cc(OC)c2c(=O)c(-c3ccccc3)coc2c1 [5,7-dimethoxyisoflavone]
mitoOX (mtOXPHOS transcripts; [3]): 0.773
cyt c (cytochrome c; [3]): 0.046
GE-HTS (OXPHOS gene expression; [3]): 0.945
nucOX (nuOXPHOS transcripts; [3]): 0.916
ROS (reactive oxygen species; [3]): 0.573
MTT [1, 3]: −1.335
Viability (C2C12 myotubes; [3]): −0.298

C[C@H]1O[C@@H](n2cc(F)c(=O)[nH]c2=O)[C@H](O)[C@@H]1O [5-fluoro-5′-deoxyuridine]
mitoOX (mtOXPHOS transcripts; [3]): −0.387
cyt c (cytochrome c; [3]): 0.338
GE-HTS (OXPHOS gene expression; [3]): −0.336
ΔΨm [2, 3]: −0.828
nucOX (nuOXPHOS transcripts; [3]): −0.284
ROS (reactive oxygen species; [3]): 0.337
MTT [1, 3]: −2.176

C[C@]12CCC(=O)C[C@@H]1CC[C@@H]1[C@@H]2CC[C@]2(C)C(=O)CC[C@@H]12 [5alpha-androstan-3,17-dione]
mitoOX (mtOXPHOS transcripts): −0.509
cyt c (cytochrome c): 0.048
ΔΨm [2]: 0.107
nucOX (nuOXPHOS transcripts): −0.426
ROS (reactive oxygen species): 0.649
MTT [1]: −0.601
Viability (C2C12 myotubes): −0.579

C=C1CCC=C(C)C(=O)CC2C(C)CC12 (stereo not shown) [15-norcaryophyllen-3-one]
mitoOX (mtOXPHOS transcripts; [4]): 0.137
cyt c (cytochrome c; [4]): 0.656
GE-HTS (OXPHOS gene expression; [4]): −0.016
ΔΨm [2, 4]: 0.034
nucOX (nuOXPHOS transcripts; [4]): −0.076
ROS (reactive oxygen species; [4]): −0.667
Viability (C2C12 myotubes; [4]): 0.557

CO[C@H]1C=C[C@@]23c4cc5c(cc4CN(C[C@@H]2O)[C@H]3C1)OCO5 [Crinamine, reference compound]
mito-OXPHOS Z (mtOXPHOS transcripts; [5]): −2.89
nucOXPHOS Z (nuOXPHOS transcripts; [5]): 2.27

CCN(CC)C(=S)SSC(=S)N(CC)CC [Disulfiram, reference compound]
mito-OXPHOS Z (mtOXPHOS transcripts; [5]): 0.93
nucOXPHOS Z (nuOXPHOS transcripts; [5]): −4.10

COc1cccc2c1C(=O)c1c(O)c3c(c(O)c1C2=O)C[C@@](O)(C(=O)CO)C[C@@H]3O[C@H]1C[C@H](N)[C@H](O)[C@H](C)O1 [Doxorubicin, reference compound]
mito-OXPHOS Z (mtOXPHOS transcripts; [5]): 2.57
nucOXPHOS Z (nuOXPHOS transcripts; [5]): −1.85

O=c1[nH]cc(F)c(=O)[nH]1 [Fluorouracil, reference compound]
mito-OXPHOS Z (mtOXPHOS transcripts; [5]): 1.55
nucOXPHOS Z (nuOXPHOS transcripts; [5]): 1.50

COc1ccc2c(c1)c(CC(=O)O)c(C)n2C(=O)c1ccc(Cl)cc1 [Indomethacin, reference compound]
mito-OXPHOS Z (mtOXPHOS transcripts; [5]): 2.40
nucOXPHOS Z (nuOXPHOS transcripts; [5]): 1.32

CC1=CC(=O)c2ccccc2C1=O [Menadione, reference compound]
mito-OXPHOS Z (mtOXPHOS transcripts; [5]): 2.13
nucOXPHOS Z (nuOXPHOS transcripts; [5]): −3.40

Nc1cc(N2CCCCC2)nc(N)[n+]1[O-] [Minoxidil, reference compound]
mito-OXPHOS Z (mtOXPHOS transcripts; [5]): 1.37
nucOXPHOS Z (nuOXPHOS transcripts; [5]): 2.38

CN(C)C(=O)Oc1cccc([N+](C)(C)C)c1 [Neostigmine, reference compound]
mito-OXPHOS Z (mtOXPHOS transcripts; [5]): −3.45
nucOXPHOS Z (nuOXPHOS transcripts; [5]): −3.54

N=C1C=CC(=C(c2ccc(N)cc2)c2ccc(N)cc2)C=C1 [Pararosaniline, reference compound]
mito-OXPHOS Z (mtOXPHOS transcripts; [5]): −5.43
nucOXPHOS Z (nuOXPHOS transcripts; [5]): −2.25

CC[C@@]1(O)C[C@H](O[C@H]2C[C@H](N(C)C)[C@H](O)[C@H](C)O2)c2c(cc3c(c2O)C(=O)c2c(O)ccc(O)c2C3=O)[C@H]1C(=O)OC [Pyrromycin, reference compound]
mito-OXPHOS Z (mtOXPHOS transcripts; [5]): −2.67
nucOXPHOS Z (nuOXPHOS transcripts; [5]): −2.89

CCN(CC)CCCC(C)Nc1c2ccc(Cl)cc2nc2ccc(OC)cc12 (stereo not shown) [Quinacrine, reference compound]
mito-OXPHOS Z (mtOXPHOS transcripts; [5]): −2.81
nucOXPHOS Z (nuOXPHOS transcripts; [5]): −2.65

CC(C)[C@]12O[C@H]1[C@@H]1O[C@@]13[C@@]1(C)CCC4=C(COC4=O)[C@@H]1C[C@@H]1O[C@@]13C2=O [Triptonide, reference compound]
mito-OXPHOS Z (mtOXPHOS transcripts; [5]): 5.02
nucOXPHOS Z (nuOXPHOS transcripts; [5]): −2.18

CCCCCCCCCCCCCCCC[N+](C)(C)C.[Br-] [cetrimonium bromide, reference compound]
mito-OXPHOS Z (mtOXPHOS transcripts; [5]): 1.66
nucOXPHOS Z (nuOXPHOS transcripts; [5]): −2.70

CC12CCC3c4ccc(OCc5ccccc5)cc4CCC3C1C[C@@H](O)[C@@H]2O (stereo partly shown) [estriol benzyl ether]
mitoOX (composite Z-score, mtDNA-encoded OXPHOS expression) (mtOXPHOS transcripts): −0.574
GE-HTS (composite Z-score, OXPHOS gene expression) (OXPHOS gene expression): −0.114
ΔΨm (composite Z-score vs DMSO mock-treated wells) [2]: 3.459
nucOX (composite Z-score, nuclear-encoded OXPHOS expression) (nuOXPHOS transcripts): 0.122
ROS (composite Z-score vs DMSO mock-treated wells) (reactive oxygen species): −0.504
MTT (composite Z-score vs DMSO mock-treated wells) [1]: 2.975
Viability (composite Z-score vs DMSO mock-treated wells) (C2C12 myotubes): 0.551

CCOC(=O)c1c(C)cc(OC)cc1O [ethyl everninate]
mitoOX (mtOXPHOS transcripts; [3]): −0.980
cyt c (cytochrome c; [3]): 0.122
GE-HTS (OXPHOS gene expression; [3]): −0.428
ΔΨm [2, 3]: −0.860
nucOX (nuOXPHOS transcripts; [3]): −0.131
ROS (reactive oxygen species; [3]): 0.125
MTT [1, 3]: −1.302

COC(=O)C[C@H]1C(C)(C)[C@@H](OC(C)=O)[C@@H]2CC3=C4CC(=O)O[C@@H](c5ccoc5)[C@]4(C)CC[C@@H]3[C@@]1(C)C2=O [fissinolide]
mitoOX (mtOXPHOS transcripts; [6]): 0.777
cyt c (cytochrome c; [6]): −0.167
GE-HTS (OXPHOS gene expression; [6]): 0.534
ΔΨm [2, 6]: −0.324
nucOX (nuOXPHOS transcripts; [6]): 0.385
ROS (reactive oxygen species; [6]): 0.475
Viability (C2C12 myotubes; [6]): 0.060

CC[N+](CC)(CC)CCOc1cccc(OCC[N+](CC)(CC)CC)c1OCC[N+](CC)(CC)CC [gallamine]
mitoOX (mtOXPHOS transcripts; [7]): 0.843
cyt c (cytochrome c): 0.036
cyt c (cytochrome c; [7]): −0.492
GE-HTS (OXPHOS gene expression; [7]): 0.057
ΔΨm [2, 7]: −0.882
nucOX (nuOXPHOS transcripts; [7]): −0.292
ROS (reactive oxygen species; [7]): 1.259
MTT [1, 7]: −1.683

CC(C)=CCC[C@]1(C)C=Cc2c(O)c3c(c(CC=C(C)C)c2O1)O[C@]12C(=C[C@@H]4CC1C(C)(C)O[C@@]2(C/C=C(/C)C(N)=O)C4=O)C3=O [gambogic acid amide, reference compound]
mito-OXPHOS Z (mtOXPHOS transcripts; [5]): −2.68
nucOXPHOS Z (nuOXPHOS transcripts; [5]): −4.01

CC(=O)O[C@@H]1CC2C(C)(C)[C@H](O)C=C[C@]2(C)C2CC[C@@]3(C)[C@H](c4ccoc4)OC(=O)C4OC43[C@@]21C (stereo partly shown) [gedunol]
mitoOX (mtOXPHOS transcripts; [6]): −1.174
GE-HTS (OXPHOS gene expression; [6]): −1.545
ΔΨm [2, 6]: 0.897
nucOX (nuOXPHOS transcripts; [6]): −1.561
ROS (reactive oxygen species; [6]): 0.132
MTT [1, 6]: −1.248
Viability (C2C12 myotubes; [6]): 0.438

Cc1c(O)cc(O)c2c(=O)c(-c3ccc(O)cc3)coc12 [genistein, 8-methyl]
mitoOX (composite Z-score) (mtOXPHOS transcripts): 0.023
GE-HTS (composite Z-score) (OXPHOS gene expression): 0.247
ΔΨm (composite Z-score) [2]: −0.404
nucOX (composite Z-score) (nuOXPHOS transcripts): 0.353
ROS (composite Z-score) (reactive oxygen species): 1.016
MTT (composite Z-score) [1]: −1.035
Viability (composite Z-score) (C2C12 myotubes): −0.071

CC(=O)O[C@@H]1CC2C(C)(C)C=CC(=O)[C@]2(C)C2CC[C@@]3(C)[C@H](c4ccoc4)OC(=O)C4OC43[C@@]21C (stereo partly shown) [isogedunin]
mitoOX (mtOXPHOS transcripts; [6]): 0.523
cyt c (cytochrome c; [6]): 0.050
GE-HTS (OXPHOS gene expression; [6]): 0.805
ΔΨm [2, 6]: −0.489
nucOX (nuOXPHOS transcripts; [6]): 0.883
MTT [1, 6]: −1.716
Viability (C2C12 myotubes; [6]): 0.404

CON [methoxyamine]
mitoOX (mtOXPHOS transcripts; [7]): −1.494
cyt c (cytochrome c; [7]): 0.749
GE-HTS (OXPHOS gene expression; [7]): −1.274
ΔΨm [2, 7]: −0.754
nucOX (nuOXPHOS transcripts; [7]): −1.049
ROS (reactive oxygen species; [7]): 0.751
MTT [1, 7]: −1.833

Cc1cc(C(C)(C)CC(C)(C)C)ccc1OCCOCC[N+](C)(C)Cc1ccccc1 [methylbenzethonium]
mitoOX (mtOXPHOS transcripts): −1.043
GE-HTS (OXPHOS gene expression): −1.868
ΔΨm [2]: −4.202
nucOX (nuOXPHOS transcripts): −2.103
ROS (reactive oxygen species): −3.108
MTT [1]: −5.614
Viability (C2C12 myotubes): −4.580

CC[C@@]1([C@@H]2O[C@@H]([C@H]3O[C@@](O)(CO)[C@H](C)C[C@@H]3C)C[C@@H]2C)CC[C@H]([C@]2(C)CC[C@]3(C[C@H](O)[C@@H](C)[C@@H]([C@@H](C)[C@@H](OC)[C@H](C)C(=O)O)O3)O2)O1 [monensin, reference compound]
mito-OXPHOS Z (mtOXPHOS transcripts; [5]): −4.13
nucOXPHOS Z (nuOXPHOS transcripts; [5]): 0.70

COc1cc([C@@H]2c3cc4c(cc3[C@H](O)[C@H]3COC(=O)[C@H]23)OCO4)cc(OC)c1OC [podofilox, reference compound]
mito-OXPHOS Z (mtOXPHOS transcripts; [5]): 1.28
GEHTS_Zscore (OXPHOS gene expression; [8]): 3.408
OXPHOS expression (OXPHOS gene expression): boost OXPHOS expression
dose at which OXPHOS expression increased (OXPHOS gene expression): 2 µM
nucOXPHOS Z (nuOXPHOS transcripts; [5]): 2.53
ROS Zscore (reactive oxygen species; [8]): −1.436
ROS levels (reactive oxygen species): suppressing ROS levels
dose at which ROS levels decreased (reactive oxygen species): 2 µM

NCCCCN [putrescine]
mitoOX (mtOXPHOS transcripts): −0.684
cyt c (cytochrome c): 0.897
GE-HTS (OXPHOS gene expression): −0.341
nucOX (nuOXPHOS transcripts): −0.160
ROS (reactive oxygen species): 0.279
MTT [1]: −0.806
Viability (C2C12 myotubes): −0.586

CC[C@]1(O)C[C@@H]2CN(CCc3c([nH]c4ccccc34)[C@@](C(=O)OC)(c3cc4c(cc3OC)N(C)[C@H]3[C@@](O)(C(=O)OC)[C@H](OC(C)=O)[C@]5(CC)C=CCN6CC[C@]43[C@@H]65)C2)C1 [vinblastine sulfate, reference compound]
mito-OXPHOS Z (mtOXPHOS transcripts; [5]): 1.64
cyt c (cytochrome c; composite Z-score vs mock-treated (DMSO) wells, concentration of each compound in μM): −1.078
GEHTS_Zscore (OXPHOS gene expression; [8]): 3.171
GEHTS_Zscore (OXPHOS gene expression; [9]): 3.171
OXPHOS expression (OXPHOS gene expression): boost OXPHOS expression
dose at which OXPHOS expression increased (OXPHOS gene expression): 2 µM
nucOXPHOS Z (nuOXPHOS transcripts; [5]): 2.09
ROS Zscore (reactive oxygen species; [8]): −1.327
ROS Zscore (reactive oxygen species; [9]): −1.327
ROS levels (reactive oxygen species): suppressing ROS levels
dose at which ROS levels decreased (reactive oxygen species): 2 µM

Thimerosal [reference compound]
mito-OXPHOS Z (mtOXPHOS transcripts): 10.41
ΔΨm [2]: −3.315
nucOXPHOS Z (nuOXPHOS transcripts): −1.20
ROS (reactive oxygen species): −3.880
MTT [1]: −6.206
Viability (C2C12 myotubes): −5.590
